As a reminder, the IC50 is the point on the concentration scale where inhibition reaches its midpoint. High values mean a need for much substance, low ones inhibition by little substance.

In brackets after ≈: the same amount, converted by molar mass.

This passage reports IC50 results from ChEMBL document CHEMBL1150109, “New cytotoxic coumarins and prenylated benzophenone derivatives from the bark of Ochrocarpos punctatus from the Madagascar rainforest” (J Nat Prod, 2002).

The test system of this assay is A2780. Put plainly: Cytotoxicity against human A2780 cells. The format is functional, cell-based.
Regarding `CCC(C)C(=O)c1c2c(c3oc(=O)cc(-c4ccccc4)c3c1O)C=CC(C)(C)O2` (stereo unspecified), the IC50 came out at 4.5 µg/mL (≈ 11.1 µM).

As for `CC(C)CC(=O)c1c2c(c3oc(=O)cc(-c4ccccc4)c3c1O)CC(C(C)(C)O)O2` (stereo unspecified), the IC50 is 6.4 µg/mL (≈ 15.1 µM).

Consider `CC(C)=CCC1CC2(CC=C(C)C)C(=O)C3=C(OC(C(C)(C)O)C3)C(C(=O)c3ccccc3)(C2=O)C1(C)C` (stereo unspecified) [OCHROCARPINONE B], for which the IC50 was determined as 7.4 µg/mL (≈ 14.3 µM).

`CC(C)=CCC1CC2(CC=C(C)C)C(=O)C(C(=O)c3ccccc3)(C(=O)C3=C2OC(C(C)(C)O)C3)C1(C)C` (stereo unspecified) [OCHROCARPINONE C] showed a 50% inhibitory concentration (IC50) of 8.2 µg/mL (≈ 15.8 µM).

`CC(C)=CCC1CC2(CC=C(C)C)C(=O)C3=C(OC(C)(C)C(OO)C3)C(C(=O)c3ccccc3)(C2=O)C1(C)C` (stereo unspecified): the IC50 stood at 8.4 µg/mL (≈ 15.7 µM).

Regarding `CC[C@H](C)C(=O)c1c(O)c2c(-c3ccccc3)cc(=O)oc2c2cc(C(C)(C)O)oc12` [OCHROCARPIN A], the IC50 came out at 5.2 µg/mL (≈ 12.4 µM).

Regarding `CCCC(=O)c1c2c(c3oc(=O)cc(-c4ccccc4)c3c1O)CC(C(C)(C)O)O2` (stereo unspecified), the IC50 was 4.4 µg/mL (≈ 10.8 µM).

`CCC(OC(C)=O)c1cc(=O)oc2c3c(c(C(=O)[C@@H](C)CC)c(O)c12)OC(C(C)(C)O)C3` (single isomer, unassigned) [OCHROCARPIN G]: half-maximal inhibition (IC50) required 8.6 µg/mL (≈ 19.3 µM).

On to `CC(C)CC(=O)c1c(O)c2c(-c3ccccc3)cc(=O)oc2c2cc(C(C)(C)O)oc12` [OCHROCARPIN B], for which it took 3.8 µg/mL (≈ 9.04 µM) to reach half-maximal inhibition (IC50).

As to `CC(C)=CCC1CC2(CC=C(C)C)C(=O)C(C(=O)c3ccccc3)(C(=O)C3=C2OC(C)(C)C(OO)C3)C1(C)C` (stereo unspecified) [OCHROCARPINONE A], the concentration for half-maximal inhibition (IC50) was determined as 6.9 µg/mL (≈ 12.9 µM).

In turn, `CC[C@H](C)C(=O)c1c(O)c2c(-c3ccccc3)cc(=O)oc2c2cc(C(C)(C)OC)oc12` [OCHROCARPIN D] registered an IC50 of 6.3 µg/mL (≈ 14.5 µM).

Compound `CC(C)C(=O)c1c(O)c2c(-c3ccccc3)cc(=O)oc2c2cc(C(C)(C)O)oc12` [OCHROCARPIN C] came in with an IC50 of 3.7 µg/mL (≈ 9.1 µM).

Consider `CC(C)C(=O)c1c2c(c3oc(=O)cc(-c4ccccc4)c3c1O)C=CC(C)(C)O2` [MESUAGIN], for which 10.8 µg/mL (≈ 27.7 µM) corresponded to half-maximal inhibition (IC50).

`CC[C@H](C)C(=O)c1c2c(c3oc(=O)cc([C@@H](CC)OC(C)=O)c3c1O)CC(C(C)(C)O)O2` (stereo partly specified) [OCHROCARPIN F] gave a half-maximal inhibitory concentration (IC50) of 8.9 µg/mL (≈ 19.9 µM).

Regarding `CC(C)C(=O)c1c(O)c2c(c3c(-c4ccccc4)cc(=O)oc13)OC(C(C)(C)O)C2` (stereo unspecified) [OCHROCARPIN E], half-maximal inhibition (IC50) was put at 4.9 µg/mL (≈ 12 µM).

Compound `CCC(C)C(=O)c1c2c(c3oc(=O)cc(-c4ccccc4)c3c1O)CC(C(C)(C)O)O2` (stereo unspecified) came in with a half-inhibitory concentration (IC50) of 8.2 µg/mL (≈ 19.4 µM).
